In one test the test system is TRPM3.
Assay: not given
The settings on record: wild type mice vs knock-out TRPM3 mice; cited from earlier work.
For pregnenolone sulfate, the pain entry is “evoked pain in wild type mice but not in knock-out TRPM3 mice”.

System in another test: not given
Assay: not given
The settings on record: rat pain model; cited from earlier work.
Consider `O=C1C[C@@H](c2ccc(O)cc2)Oc2cc(O)ccc21` [Liquiritigenin], for which the “mechanical and cold hyperalgesia” value is “decrease mechanical and cold hyperalgesia”.

The target in another test is T1, mouse TRPM3α2 (mTRPM3) ion channel (Mus musculus, UniProt J9SQF3).
T1 construct: expressed in transfected cells; host or cells: flip-in HEK293
T1 sequence (J9SQF3 1-1709 isoform J9SQF3-12): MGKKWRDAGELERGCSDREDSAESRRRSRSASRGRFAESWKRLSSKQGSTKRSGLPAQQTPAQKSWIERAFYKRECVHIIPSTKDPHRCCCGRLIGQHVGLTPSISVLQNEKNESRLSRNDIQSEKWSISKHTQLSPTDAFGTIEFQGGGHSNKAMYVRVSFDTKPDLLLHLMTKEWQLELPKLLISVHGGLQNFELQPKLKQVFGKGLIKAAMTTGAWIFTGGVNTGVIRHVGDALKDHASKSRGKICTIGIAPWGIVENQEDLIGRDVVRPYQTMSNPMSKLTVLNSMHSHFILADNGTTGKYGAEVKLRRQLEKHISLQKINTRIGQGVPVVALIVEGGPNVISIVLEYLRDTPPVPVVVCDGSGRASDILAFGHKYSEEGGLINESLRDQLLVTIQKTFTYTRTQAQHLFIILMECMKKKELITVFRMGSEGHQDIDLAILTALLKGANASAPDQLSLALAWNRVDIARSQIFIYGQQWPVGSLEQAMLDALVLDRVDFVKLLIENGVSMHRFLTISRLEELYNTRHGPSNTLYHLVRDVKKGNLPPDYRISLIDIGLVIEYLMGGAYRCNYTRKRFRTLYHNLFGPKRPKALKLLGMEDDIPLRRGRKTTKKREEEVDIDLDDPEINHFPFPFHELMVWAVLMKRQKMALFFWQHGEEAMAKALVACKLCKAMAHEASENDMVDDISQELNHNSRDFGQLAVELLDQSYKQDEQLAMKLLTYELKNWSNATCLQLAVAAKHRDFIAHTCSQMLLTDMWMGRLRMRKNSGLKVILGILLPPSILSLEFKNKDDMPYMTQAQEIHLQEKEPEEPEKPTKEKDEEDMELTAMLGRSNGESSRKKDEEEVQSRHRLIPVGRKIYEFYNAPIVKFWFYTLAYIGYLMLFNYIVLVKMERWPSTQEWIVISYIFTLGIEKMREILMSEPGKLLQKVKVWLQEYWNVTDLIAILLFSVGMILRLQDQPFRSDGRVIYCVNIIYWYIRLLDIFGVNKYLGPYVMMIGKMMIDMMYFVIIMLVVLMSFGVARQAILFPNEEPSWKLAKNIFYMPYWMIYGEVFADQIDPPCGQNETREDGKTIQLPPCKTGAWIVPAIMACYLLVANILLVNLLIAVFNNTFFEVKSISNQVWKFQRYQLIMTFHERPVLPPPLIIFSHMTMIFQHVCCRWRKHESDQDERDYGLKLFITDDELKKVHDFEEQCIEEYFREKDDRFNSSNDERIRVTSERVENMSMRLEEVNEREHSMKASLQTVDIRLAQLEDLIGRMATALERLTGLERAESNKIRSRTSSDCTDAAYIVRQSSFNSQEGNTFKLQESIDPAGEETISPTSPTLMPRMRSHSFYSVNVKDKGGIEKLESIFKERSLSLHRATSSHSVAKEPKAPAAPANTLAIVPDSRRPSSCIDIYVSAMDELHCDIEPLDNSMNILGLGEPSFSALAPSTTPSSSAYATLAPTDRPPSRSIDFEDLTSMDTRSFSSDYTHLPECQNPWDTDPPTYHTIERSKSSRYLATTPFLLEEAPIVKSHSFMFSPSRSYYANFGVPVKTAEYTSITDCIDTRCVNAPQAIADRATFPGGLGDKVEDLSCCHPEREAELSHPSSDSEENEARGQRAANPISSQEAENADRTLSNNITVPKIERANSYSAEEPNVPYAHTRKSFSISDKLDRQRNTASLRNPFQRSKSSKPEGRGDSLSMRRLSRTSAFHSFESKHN
The test can be described thus: Monitoring the TRPM3 ion channel driven Ca2+ uptake (Fluo-4 AM assay). It counts as cell-based. Particulars: TRPM3 overexpressing flip-in HEK293 cells, channel stimulated with Pregnenolone sulfate (PS) 50 μM. In a few lines: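 Flp-In HEK293 cells overexpressing mTRPM3α2, loaded with Fluo-4 AM and added to wells holding compound plus 50 μM pregnenolone sulfate in Ca2+-containing Krebs buffer. Fluorescence (ex 485/em 535) read right after cell addition. Inhibition normalised to vehicle and positive-control inhibitor; IC50 derived.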
For orientation: IC50 means the concentration needed to halve the response being measured. `Cc1sc2ccc(OCc3ccccn3)cc2c1C(=O)NC1(CO)CCC1` [Cpd 078, N-[1-(hydroxymethyl)cyclobutyl]-2-methyl-5-[(pyridin-2-yl)methoxy]-1-benzothiophene-3-carboxamide] registered an IC50 of under 1000 nM.
On the same count and under the same terms, for `COc1ncccc1COc1ccc2sc(C)c(C(=O)N[C@@H](C)C(N)=O)c2c1` [Cpd 138, (2S)-2-({5-[(2-methoxypyridin-3-yl)methoxy]-2-methyl-1-benzothiophen-3-yl}formamido)propanamide] the value was under 1000 nM; for `Cc1sc2ccc(OCc3cccnc3C(F)(F)F)cc2c1C(=O)NC(C)(C)C(N)=O` [Cpd 065, 2-methyl-2-[(2-methyl-5-{[2-(trifluoromethyl)pyridin-3-yl]methoxy}-1-benzothiophen-3-yl)formamido]propanamide], under 1000 nM.
The same measure, in the same setting: for `Cc1sc2ccc(OCc3ccccc3)cc2c1C(=O)NCCN(C)C` [Cpd 115, 5-(benzyloxy)-N-[2-(dimethylamino)ethyl]-2-methyl-1-benzothiophene-3-carboxamide] the value was 1000 to 20000 nM.
`Cc1sc2ccc(OCc3ccccc3F)cc2c1C(=O)N[C@@H](CO)C(N)=O` [Cpd 051, (2S)-2-({5-[(2-fluorophenyl)methoxy]-2-methyl-1-benzothiophen-3-yl}formamido)-3-hydroxypropanamide] returned a 50% inhibitory concentration (IC50) of under 1000 nM.
Same read-out and setting: for `Cc1sc2ccc(OCc3ccccc3)cc2c1C(=O)NC1CN(C)CC1(F)F` (stereo not shown) [Cpd 120, 5-(benzyloxy)-N-(4,4-difluoro-1-methylpyrrolidin-3-yl)-2-methyl-1-benzothiophene-3-carboxamide] the value was under 1000 nM; for `CNC(=O)C1(NC(=O)c2c(C)sc3ccc(OCc4cnc(C)s4)cc23)CCOC1` (single isomer, unassigned) [Cpd 133 - En1, N-methyl-3-{2-methyl-5-[(2-methyl-1,3-thiazol-5-yl)methoxy]-1-benzothiophene-3-amido}oxolane-3-carboxamide], under 1000 nM; for `Cc1sc2ccc(OCc3ccccc3F)cc2c1C(=O)N[C@H](CO)C(N)=O` [Cpd 056, (2R)-2-({5-[(2-fluorophenyl)methoxy]-2-methyl-1-benzothiophen-3-yl}formamido)-3-hydroxypropanamide], under 1000 nM.
Same read-out and setting: for `Cc1sc2ccc(OCc3ccccn3)cc2c1C(=O)NC1(CO)CC1` [Cpd 075, N-[1-(hydroxymethyl)cyclopropyl]-2-methyl-5-[(pyridin-2-yl)methoxy]-1-benzothiophene-3-carboxamide] the value was 1000 to 20000 nM.
Still for that read-out and setting: for `Cc1sc2ccc(OCc3cccnc3C(F)(F)F)cc2c1C(=O)NCc1cccc(O)n1` [Cpd 105, N-[(6-hydroxypyridin-2-yl)methyl]-2-methyl-5-{[2-(trifluoromethyl)pyridin-3-yl]methoxy}-1-benzothiophene-3-carboxamide] the value was under 1000 nM; for `Cc1sc2ccc(OCc3ccccc3)cc2c1C(=O)NC1CCOC1` (stereo not shown) [Cpd 096, 5-(benzyloxy)-2-methyl-N-(oxolan-3-yl)-1-benzothiophene-3-carboxamide], under 1000 nM; for `Cc1ncsc1COc1ccc2sc(C)c(C(=O)NC3(C(N)=O)CCOCC3)c2c1` [Cpd 033, 4-{2-methyl-5-[(4-methyl-1,3-thiazol-5-yl)methoxy]-1-benzothiophene-3-amido}oxane-4-carboxamide], under 1000 nM.
On to `Cc1ncsc1COc1ccc2sc(C)c(C(=O)NC(C)(CO)CO)c2c1` [Cpd 032, N-(1,3-dihydroxy-2-methylpropan-2-yl)-2-methyl-5-[(4-methyl-1,3-thiazol-5-yl)methoxy]-1-benzothiophene-3-carboxamide], for which the IC50 is under 1000 nM.
On the same count and under the same terms, the figure for `Cc1sc2ccc(OCc3ccccc3)cc2c1C(=O)N[C@H]1CCNC1=O` [Cpd 060, 5-(benzyloxy)-2-methyl-N-[(3S)-2-oxopyrrolidin-3-yl]-1-benzothiophene-3-carboxamide] is under 1000 nM.
As for `Cc1ncsc1COc1ccc2sc(C)c(C(=O)Nc3ccn(C)n3)c2c1` [Cpd 040, 2-methyl-5-[(4-methyl-1,3-thiazol-5-yl)methoxy]-N-(1-methyl-1H-pyrazol-3-yl)-1-benzothiophene-3-carboxamide], the IC50 was under 1000 nM.
In turn, `Cc1sc2ccc(OCc3cccnc3C(F)(F)F)cc2c1C(=O)N[C@@H](C)C(N)=O` [Cpd 009, (2S)-2-[(2-methyl-5-{[2-(trifluoromethyl)pyridin-3-yl]methoxy}-1-benzothiophen-3-yl)formamido]propanamide] returned an IC50 of under 1000 nM.
The same measure, in the same setting: for `Cc1sc2ccc(OCc3cccnc3C(F)(F)F)cc2c1C(=O)Nc1ccn(C)n1` [Cpd 092, 2-methyl-N-(1-methyl-1H-pyrazol-3-yl)-5-{[2-(trifluoromethyl)pyridin-3-yl]methoxy}-1-benzothiophene-3-carboxamide] the value was under 1000 nM.
In the case of `CCOC(=O)c1c(C)sc2ccc(OC)cc12` [Cpd 110, ethyl 5-methoxy-2-methyl-1-benzothiophene-3-carboxylate], the IC50 was over 20000 nM.
The same measure, in the same setting: the figure for `Cc1ncsc1COc1ccc2sc(C)c(C(=O)NCC(C)(C)N3CCOCC3)c2c1` [Cpd 044, 2-methyl-5-[(4-methyl-1,3-thiazol-5-yl)methoxy]-N-[2-methyl-2-(morpholin-4-yl)propyl]-1-benzothiophene-3-carboxamide] is under 1000 nM; for `Cc1sc2ccc(OCc3ccccc3F)cc2c1C(=O)NC1CCNCC1(F)F` (single isomer, unassigned) [Cpd 095 - En1, N-(3,3-difluoropiperidin-4-yl)-5-[(2-fluorophenyl)methoxy]-2-methyl-1-benzothiophene-3-carboxamide] it is 1000 to 20000 nM; for `Cc1ncsc1COc1ccc2sc(C)c(C(=O)N[C@@H](C)C(N)=O)c2c1` [Cpd 012, (2S)-2-({2-methyl-5-[(4-methyl-1,3-thiazol-5-yl)methoxy]-1-benzothiophen-3-yl}formamido)propanamide] it is under 1000 nM.
Compound `Cc1ncsc1COc1ccc2sc(C)c(C(=O)NC3CCN(C)CC3)c2c1` [Cpd 130, 2-methyl-5-[(4-methyl-1,3-thiazol-5-yl)methoxy]-N-(1-methylpiperidin-4-yl)-1-benzothiophene-3-carboxamide] gave an IC50 of 1000 to 20000 nM.
Still for that read-out and setting: for `Cc1ncsc1COc1ccc2sc(C)c(C(=O)NC3(C(N)=O)COC3)c2c1` [Cpd 038, 3-{2-methyl-5-[(4-methyl-1,3-thiazol-5-yl)methoxy]-1-benzothiophene-3-amido}oxetane-3-carboxamide] the value was under 1000 nM; for `Cc1sc2ccc(OCc3ccccn3)cc2c1C(=O)N[C@H](CO)C(N)=O` [Cpd 057, (2R)-3-hydroxy-2-({2-methyl-5-[(pyridin-2-yl)methoxy]-1-benzothiophen-3-yl}formamido)propanamide], under 1000 nM.
On the same count and under the same terms, the figure for `Cc1ncsc1COc1ccc2sc(C)c(C(=O)NC3(CO)CC3)c2c1` [Cpd 034, N-[1-(hydroxymethyl)cyclopropyl]-2-methyl-5-[(4-methyl-1,3-thiazol-5-yl)methoxy]-1-benzothiophene-3-carboxamide] is under 1000 nM; for `CC(C)(CNC(=O)c1c(C(F)F)sc2ccc(OCc3ccccc3)cc12)N1CCOCC1` [Cpd 013, 5-(benzyloxy)-2-(difluoromethyl)-N-[2-methyl-2-(morpholin-4-yl)propyl]-1-benzothiophene-3-carboxamide] it is 1000 to 20000 nM; for `Cc1sc2ccc(OCc3ccccc3F)cc2c1C(=O)N[C@H](C)C(N)=O` [Cpd 002, (2R)-2-({5-[(2-fluorophenyl)methoxy]-2-methyl-1-benzothiophen-3-yl}formamido)propanamide] it is under 1000 nM.
Still for that read-out and setting: the figure for `Cc1sc2ccc(OCc3cccnc3C(F)(F)F)cc2c1C(=O)O` [Cpd 109, 2-methyl-5-{[2-(trifluoromethyl)pyridin-3-yl]methoxy}-1-benzothiophene-3-carboxylic acid] is under 1000 nM; for `Cc1sc2ccc(OCc3ccccc3F)cc2c1C(=O)NC1(C(N)=O)CCOCC1` [Cpd 070, 4-{5-[(2-fluorophenyl)methoxy]-2-methyl-1-benzothiophene-3-amido}oxane-4-carboxamide] it is under 1000 nM; for `CN(C)CCNC(=O)c1c(C(F)F)sc2ccc(OCc3ccccc3)cc12` [Cpd 116, 5-(benzyloxy)-2-(difluoromethyl)-N-[2-(dimethylamino)ethyl]-1-benzothiophene-3-carboxamide] it is 1000 to 20000 nM.
`Cc1sc2ccc(OCC3COC3)cc2c1C(=O)NC(C)(CO)C(N)=O` (single isomer, unassigned) [Cpd 068 - En2, 3-hydroxy-2-methyl-2-({2-methyl-5-[(oxetan-3-yl)methoxy]-1-benzothiophen-3-yl}formamido)propanamide] showed an IC50 of 1000 to 20000 nM.
In turn, `Cc1ncsc1COc1ccc2sc(C)c(C(=O)NC3(CO)COC3)c2c1` [Cpd 037, N-[3-(hydroxymethyl)oxetan-3-yl]-2-methyl-5-[(4-methyl-1,3-thiazol-5-yl)methoxy]-1-benzothiophene-3-carboxamide] yielded an IC50 of under 1000 nM.

(Values after patent publication US20250346569A1, “NEW DERIVATIVES FOR TREATING TRPM3 MEDIATED DISORDERS” (Katholieke Universiteit Leuven, priority 2022, published 2025).)
